Assay results reported in patent publication US20230053540A1, “TREATMENT OF LIVER INJURY” (Massachusetts Institute of Technology, priority 2019, published 2023).

Test system: hepatocytes
Experiment: Seq-Well scRNA-Seq of hepatocytes after APAP overdose (signature scores, DEG vs untreated)
Format: in vivo, mouse

For `CC(=O)Nc1ccc(O)cc1` [APAP, acetaminophen], the “avg_logFC Snx3” value (cluster A48 (APAP, 48 h)) was 0.2562, the “avg_logFC Sord” value (cluster A48 (APAP, 48 h)) was 0.3763 and the “avg_logFC St3gal5” value (cluster A48 (APAP, 48 h)) was 0.3766. The “avg_logFC Stbd1” value (cluster A48 (APAP, 48 h)) was 0.2667, the “avg_logFC Sult1a1” value (cluster A48 (APAP, 48 h)) was 0.3856 and the “avg_logFC Sult1d1” value (cluster A48 (APAP, 48 h)) was 0.5282. The “avg_logFC Syvn1” value (cluster A48 (APAP, 48 h)) was 0.2867, the “avg_logFC Tcea3” value (cluster A48 (APAP, 48 h)) was 0.3934 and the “avg_logFC Tef” value (cluster A48 (APAP, 48 h)) was 0.3162. For the same compound, the “avg_logFC Tmbim4” value (cluster A48 (APAP, 48 h)) was 0.3931, the “avg_logFC Tmbim6” value (cluster A48 (APAP, 48 h)) was 0.3567 and the “avg_logFC Tmem219” value (cluster A48 (APAP, 48 h)) was 0.2647. For the same compound, the “avg_logFC Ttc36” value (cluster A48 (APAP, 48 h)) was 0.6145, the “avg_logFC Ttpa” value (cluster A48 (APAP, 48 h)) was 0.4757 and the “avg_logFC Ttr” value (cluster A48 (APAP, 48 h)) was 0.4205. The “avg_logFC Ugt2b5” value (cluster A48 (APAP, 48 h)) was 0.6108, the “avg_logFC Ugt2b36” value (cluster A48 (APAP, 48 h)) was 0.3503 and the “avg_logFC Upb1” value (cluster A48 (APAP, 48 h)) was 0.3631. For the same compound, the “avg_logFC Usmg5” value (cluster A48 (APAP, 48 h)) was 0.4173, the “avg_logFC Vnn3” value (cluster A48 (APAP, 48 h)) was 0.3054 and the “avg_logFC Vtn” value (cluster A48 (APAP, 48 h)) was 0.3638. For the same compound, the “avg_logFC Yipf3” value (cluster A48 (APAP, 48 h)) was 0.2702, the “avg_logFC Zfp91” value (cluster A48 (APAP, 48 h)) was 0.3221 and the “pct.1, gene Abcc3” value (cluster A96) was 0.733. The “pct.1, gene Acaa1b” value (cluster A96) was 0.986, the “pct.1, gene Acat1” value (cluster A96) was 0.917 and the “pct.1, gene Acot1” value (cluster A96) was 0.459. For the same compound, the “pct.1, gene Agpat6” value (cluster A96) was 0.743, the “pct.1, gene Agt” value (cluster A96) was 0.912 and the “pct.1, gene Akr1d1” value (cluster A96) was 0.721. For the same compound, the “pct.1, gene Aldh9a1” value (cluster A96) was 0.884, the “pct.1, gene Aplp2” value (cluster A96) was 0.826 and the “pct.1, gene Apo17a” value (cluster A96) was 0.559. For the same compound, the “pct.1, gene Apoc2” value (cluster A96) was 0.901, the “pct.1, gene Aqp9” value (cluster A96) was 0.801 and the “pct.1, gene Arl4a” value (cluster A96) was 0.517. For the same compound, the “pct.1, gene Asl” value (cluster A96) was 0.896, the “pct.1, gene Baat” value (cluster A96) was 0.862 and the “pct.1, gene Bnip3” value (cluster A96) was 0.716. The “pct.1, gene Cd36” value (cluster A96) was 0.299, the “pct.1, gene Ces1e” value (cluster A96) was 0.71 and the “pct.1, gene Cox5a” value (cluster A96) was 0.813. The “pct.1, gene Cox6a1” value (cluster A96) was 0.943, the “pct.1, gene Cox8a” value (cluster A96) was 0.737 and the “pct.1, gene Cpeb4” value (cluster A96) was 0.527. The “pct.1, gene Cpox” value (cluster A96) was 0.634, the “pct.1, gene Cpt1a” value (cluster A96) was 0.837 and the “pct.1, gene Creg1” value (cluster A96) was 0.985. For the same compound, the “pct.1, gene Csad” value (cluster A96) was 0.843, the “pct.1, gene Ctage5” value (cluster A96) was 0.837 and the “pct.1, gene Cth” value (cluster A96) was 0.944. The “pct.1, gene Cxcl12” value (cluster A96) was 0.635, the “pct.1, gene D4Wsu53e” value (cluster A96) was 0.597 and the “pct.1, gene Decr2” value (cluster A96) was 0.813. The “pct.1, gene Dhdh” value (cluster A96) was 0.734, the “pct.1, gene Etfdh” value (cluster A96) was 0.811 and the “pct.1, gene Etnppl” value (cluster A96) was 0.677. For the same compound, the “pct.1, gene F5” value (cluster A96) was 0.858, the “pct.1, gene Fmo1” value (cluster A96) was 0.606 and the “pct.1, gene G0s2” value (cluster A96) was 0.525. The “pct.1, gene G6pc” value (cluster A96) was 0.86, the “pct.1, gene Gabarapl1” value (cluster A96) was 0.881 and the “pct.1, gene Gadd45b” value (cluster A96) was 0.452. For the same compound, the “pct.1, gene Gas5” value (cluster A96) was 0.68, the “pct.1, gene Gm4952” value (cluster A96) was 0.663 and the “pct.1, gene Gsta2” value (cluster A96) was 0.522. For the same compound, the “pct.1, gene Gstt3” value (cluster A96) was 0.541, the “pct.1, gene Gyk” value (cluster A96) was 0.616 and the “pct.1, gene Hmgcl” value (cluster A96) was 0.871. For the same compound, the “pct.1, gene Hmgcs1” value (cluster A96) was 0.858, the “pct.1, gene Hpgd” value (cluster A96) was 0.588 and the “pct.1, gene Hsd17b7” value (cluster A96) was 0.56. The “pct.1, gene Hsd17b10” value (cluster A96) was 0.841, the “pct.1, gene Igfbp1” value (cluster A96) was 0.826 and the “pct.1, gene Kif1b” value (cluster A96) was 0.686. For the same compound, the “pct.1, gene Lcat” value (cluster A96) was 0.886, the “pct.1, gene Mia3” value (cluster A96) was 0.81 and the “pct.1, gene Ndufa3” value (cluster A96) was 0.737. The “pct.1, gene Ndufa7” value (cluster A96) was 0.818, the “pct.1, gene Nr1i3” value (cluster A96) was 0.625 and the “pct.1, gene Oat” value (cluster A96) was 0.653. The “pct.1, gene Pon1” value (cluster A96) was 0.965, the “pct.1, gene Por” value (cluster A96) was 0.858 and the “pct.1, gene Ppp1r3b” value (cluster A96) was 0.536. For the same compound, the “pct.1, gene Ppp2r5a” value (cluster A96) was 0.764, the “pct.1, gene Ptms” value (cluster A96) was 0.806 and the “pct.1, gene Pxmp4” value (cluster A96) was 0.687. The “pct.1, gene Rdh16” value (cluster A96) was 0.494, the “pct.1, gene Rdx” value (cluster A96) was 0.824 and the “pct.1, gene Rgn” value (cluster A96) was 0.899. For the same compound, the “pct.1, gene Sc4mol” value (cluster A96) was 0.781, the “pct.1, gene Slc4a4” value (cluster A96) was 0.609 and the “pct.1, gene Slc25a20” value (cluster A96) was 0.671. The “pct.1, gene Slco1a4” value (cluster A96) was 0.507, the “pct.1, gene Snord118” value (cluster A96) was 0.564 and the “pct.1, gene Tgoln1” value (cluster A96) was 0.756. For the same compound, the “pct.1, gene Tmed5” value (cluster A96) was 0.714, the “pct.1, gene Tobi” value (cluster A96) was 0.649 and the “pct.1, gene Tsc22d3” value (cluster A96) was 0.534. The “pct.1, gene Zfp36l1” value (cluster A96) was 0.601 and the “pct.1, gene Zfp91” value (cluster A96) was 0.693.
